Experimental findings from PubChem BioAssay AID2060508 (Molecular Pharmacology Branch, DTP, NCI, 2025) are described below.

Structures are written as SMILES.
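Also: spheroids exposed to compounds for seven days; 100% = DMSO vehicle control viability.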

The subject of one assay is 454973-116-R2-J3-PDC spheroids, viability, % test/control. Nature of the assay: Anticancer human tumor 454973-116-R2-J3-PDC patient-derived pancreatic carcinoma cell line growth inhibition [GQUAD]. The settings on record: second compound 0.0316 µM; first compound 3.16 µM; hits give low values; spheroids with HUVEC and MSC. In short, it runs like this: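 Tumor cells were grown as complex spheroids with HUVEC endothelial cells and mesenchymal stem cells as stroma. G-quadruplex stabilizers were combined with targeted agents over half-log dilutions from near the clinical Cmax, or from 10 microM.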
`CC1COCCN1c1cc(C2(O)CC3CCC(C2)O3)c2cnn(-c3ccn[nH]3)c2n1` (configuration not stated) + CN(C)c1ccc(Nc2c3ccc(NC(=O)CCN4CCCC4)cc3nc3cc(NC(=O)CCN4CCCC4)ccc23)cc1: the viability, T/C was 21.4%.

`COc1ccc([C@@H](O)c2cc(-c3ncnc4cc(N5CCOCC5)ccc34)c(F)cc2Cl)nn1` + CN(C)c1ccc(Nc2c3ccc(NC(=O)CCN4CCCC4)cc3nc3cc(NC(=O)CCN4CCCC4)ccc23)cc1: the viability, T/C is 69.1%.

The same assay, now with this note: second compound 0.0316 µM; first compound 10 µM; hits give low values; spheroids with HUVEC and MSC.
Take `CC(C)n1c(=O)n(C)c2cnc3cc(F)c(-c4ccc(OCCCN5CCCCC5)nc4)cc3c21` + CN(C)c1ccc(Nc2c3ccc(NC(=O)CCN4CCCC4)cc3nc3cc(NC(=O)CCN4CCCC4)ccc23)cc1: the viability, T/C is 73.5%.

`CC1COCCN1c1cc(-c2ccnn2C)c2ccnc(-c3ccn[nH]3)c2n1` (configuration not stated) + CN(C)c1ccc(Nc2c3ccc(NC(=O)CCN4CCCC4)cc3nc3cc(NC(=O)CCN4CCCC4)ccc23)cc1: the viability, T/C was 29.4%.

Consider `CC1COCCN1c1cc(C2(O)CC3CCC(C2)O3)c2cnn(-c3ccn[nH]3)c2n1` (configuration not stated) + CN(C)c1ccc(Nc2c3ccc(NC(=O)CCN4CCCC4)cc3nc3cc(NC(=O)CCN4CCCC4)ccc23)cc1, for which the viability, T/C is 15%.

In the case of `COc1ccc([C@@H](O)c2cc(-c3ncnc4cc(N5CCOCC5)ccc34)c(F)cc2Cl)nn1` + CN(C)c1ccc(Nc2c3ccc(NC(=O)CCN4CCCC4)cc3nc3cc(NC(=O)CCN4CCCC4)ccc23)cc1, the viability, T/C is 55.7%.

Staying with this assay, now noted: second compound 0.1 µM; first compound 0.0316 µM; hits give low values; spheroids with HUVEC and MSC.
For the compound `CC(C)n1c(=O)n(C)c2cnc3cc(F)c(-c4ccc(OCCCN5CCCCC5)nc4)cc3c21` + CN(C)c1ccc(Nc2c3ccc(NC(=O)CCN4CCCC4)cc3nc3cc(NC(=O)CCN4CCCC4)ccc23)cc1, the viability, T/C was 103%.

`CC1COCCN1c1cc(-c2ccnn2C)c2ccnc(-c3ccn[nH]3)c2n1` (configuration not stated) + CN(C)c1ccc(Nc2c3ccc(NC(=O)CCN4CCCC4)cc3nc3cc(NC(=O)CCN4CCCC4)ccc23)cc1: the viability, T/C was 102%.

With `CC1COCCN1c1cc(C2(O)CC3CCC(C2)O3)c2cnn(-c3ccn[nH]3)c2n1` (configuration not stated) + CN(C)c1ccc(Nc2c3ccc(NC(=O)CCN4CCCC4)cc3nc3cc(NC(=O)CCN4CCCC4)ccc23)cc1, the viability, T/C is 98.6%.

As for `COc1ccc([C@@H](O)c2cc(-c3ncnc4cc(N5CCOCC5)ccc34)c(F)cc2Cl)nn1` + CN(C)c1ccc(Nc2c3ccc(NC(=O)CCN4CCCC4)cc3nc3cc(NC(=O)CCN4CCCC4)ccc23)cc1, the viability, T/C is 112%.

Still in this assay, the particulars now being: second compound 0.1 µM; first compound 0.1 µM; hits give low values; spheroids with HUVEC and MSC.
In the case of `CC(C)n1c(=O)n(C)c2cnc3cc(F)c(-c4ccc(OCCCN5CCCCC5)nc4)cc3c21` + CN(C)c1ccc(Nc2c3ccc(NC(=O)CCN4CCCC4)cc3nc3cc(NC(=O)CCN4CCCC4)ccc23)cc1, the viability, T/C is 118%.

For `CC1COCCN1c1cc(-c2ccnn2C)c2ccnc(-c3ccn[nH]3)c2n1` (configuration not stated) + CN(C)c1ccc(Nc2c3ccc(NC(=O)CCN4CCCC4)cc3nc3cc(NC(=O)CCN4CCCC4)ccc23)cc1, the viability, T/C is 72%.

For `CC1COCCN1c1cc(C2(O)CC3CCC(C2)O3)c2cnn(-c3ccn[nH]3)c2n1` (configuration not stated) + CN(C)c1ccc(Nc2c3ccc(NC(=O)CCN4CCCC4)cc3nc3cc(NC(=O)CCN4CCCC4)ccc23)cc1, the viability, T/C was 66.8%.

As to `COc1ccc([C@@H](O)c2cc(-c3ncnc4cc(N5CCOCC5)ccc34)c(F)cc2Cl)nn1` + CN(C)c1ccc(Nc2c3ccc(NC(=O)CCN4CCCC4)cc3nc3cc(NC(=O)CCN4CCCC4)ccc23)cc1, the viability, T/C was 98.5%.

Still in this assay, the particulars now being: second compound 0.1 µM; first compound 0.316 µM; hits give low values; spheroids with HUVEC and MSC.
As to `CC(C)n1c(=O)n(C)c2cnc3cc(F)c(-c4ccc(OCCCN5CCCCC5)nc4)cc3c21` + CN(C)c1ccc(Nc2c3ccc(NC(=O)CCN4CCCC4)cc3nc3cc(NC(=O)CCN4CCCC4)ccc23)cc1, the viability, T/C is 95.2%.

Turning to `CC1COCCN1c1cc(-c2ccnn2C)c2ccnc(-c3ccn[nH]3)c2n1` (configuration not stated) + CN(C)c1ccc(Nc2c3ccc(NC(=O)CCN4CCCC4)cc3nc3cc(NC(=O)CCN4CCCC4)ccc23)cc1, the viability, T/C is 32.9%.

For the compound `CC1COCCN1c1cc(C2(O)CC3CCC(C2)O3)c2cnn(-c3ccn[nH]3)c2n1` (configuration not stated) + CN(C)c1ccc(Nc2c3ccc(NC(=O)CCN4CCCC4)cc3nc3cc(NC(=O)CCN4CCCC4)ccc23)cc1, the viability, T/C was 31.2%.

`COc1ccc([C@@H](O)c2cc(-c3ncnc4cc(N5CCOCC5)ccc34)c(F)cc2Cl)nn1` + CN(C)c1ccc(Nc2c3ccc(NC(=O)CCN4CCCC4)cc3nc3cc(NC(=O)CCN4CCCC4)ccc23)cc1: the viability, T/C is 101%.

The same assay, now with this note: second compound 0.1 µM; first compound 1 µM; hits give low values; spheroids with HUVEC and MSC.
On to `CC(C)n1c(=O)n(C)c2cnc3cc(F)c(-c4ccc(OCCCN5CCCCC5)nc4)cc3c21` + CN(C)c1ccc(Nc2c3ccc(NC(=O)CCN4CCCC4)cc3nc3cc(NC(=O)CCN4CCCC4)ccc23)cc1, for which the viability, T/C is 97.1%.

For `CC1COCCN1c1cc(-c2ccnn2C)c2ccnc(-c3ccn[nH]3)c2n1` (configuration not stated) + CN(C)c1ccc(Nc2c3ccc(NC(=O)CCN4CCCC4)cc3nc3cc(NC(=O)CCN4CCCC4)ccc23)cc1, the viability, T/C is 22.9%.

Turning to `CC1COCCN1c1cc(C2(O)CC3CCC(C2)O3)c2cnn(-c3ccn[nH]3)c2n1` (configuration not stated) + CN(C)c1ccc(Nc2c3ccc(NC(=O)CCN4CCCC4)cc3nc3cc(NC(=O)CCN4CCCC4)ccc23)cc1, the viability, T/C was 23.4%.

As to `COc1ccc([C@@H](O)c2cc(-c3ncnc4cc(N5CCOCC5)ccc34)c(F)cc2Cl)nn1` + CN(C)c1ccc(Nc2c3ccc(NC(=O)CCN4CCCC4)cc3nc3cc(NC(=O)CCN4CCCC4)ccc23)cc1, the viability, T/C was 82.9%.

Still in this assay, the particulars now being: second compound 0.1 µM; first compound 3.16 µM; hits give low values; spheroids with HUVEC and MSC.
For the compound `CC(C)n1c(=O)n(C)c2cnc3cc(F)c(-c4ccc(OCCCN5CCCCC5)nc4)cc3c21` + CN(C)c1ccc(Nc2c3ccc(NC(=O)CCN4CCCC4)cc3nc3cc(NC(=O)CCN4CCCC4)ccc23)cc1, the viability, T/C is 68.7%.

On to `CC1COCCN1c1cc(-c2ccnn2C)c2ccnc(-c3ccn[nH]3)c2n1` (configuration not stated) + CN(C)c1ccc(Nc2c3ccc(NC(=O)CCN4CCCC4)cc3nc3cc(NC(=O)CCN4CCCC4)ccc23)cc1, for which the viability, T/C was 23.1%.

As for `CC1COCCN1c1cc(C2(O)CC3CCC(C2)O3)c2cnn(-c3ccn[nH]3)c2n1` (configuration not stated) + CN(C)c1ccc(Nc2c3ccc(NC(=O)CCN4CCCC4)cc3nc3cc(NC(=O)CCN4CCCC4)ccc23)cc1, the viability, T/C is 22.4%.

For the compound `COc1ccc([C@@H](O)c2cc(-c3ncnc4cc(N5CCOCC5)ccc34)c(F)cc2Cl)nn1` + CN(C)c1ccc(Nc2c3ccc(NC(=O)CCN4CCCC4)cc3nc3cc(NC(=O)CCN4CCCC4)ccc23)cc1, the viability, T/C was 65.5%.

Still in this assay, the particulars now being: second compound 0.1 µM; first compound 10 µM; hits give low values; spheroids with HUVEC and MSC.
For the compound `CC(C)n1c(=O)n(C)c2cnc3cc(F)c(-c4ccc(OCCCN5CCCCC5)nc4)cc3c21` + CN(C)c1ccc(Nc2c3ccc(NC(=O)CCN4CCCC4)cc3nc3cc(NC(=O)CCN4CCCC4)ccc23)cc1, the viability, T/C is 76.1%.

Take `CC1COCCN1c1cc(-c2ccnn2C)c2ccnc(-c3ccn[nH]3)c2n1` (configuration not stated) + CN(C)c1ccc(Nc2c3ccc(NC(=O)CCN4CCCC4)cc3nc3cc(NC(=O)CCN4CCCC4)ccc23)cc1: the viability, T/C is 26.1%.

On to `CC1COCCN1c1cc(C2(O)CC3CCC(C2)O3)c2cnn(-c3ccn[nH]3)c2n1` (configuration not stated) + CN(C)c1ccc(Nc2c3ccc(NC(=O)CCN4CCCC4)cc3nc3cc(NC(=O)CCN4CCCC4)ccc23)cc1, for which the viability, T/C is 15%.

With `COc1ccc([C@@H](O)c2cc(-c3ncnc4cc(N5CCOCC5)ccc34)c(F)cc2Cl)nn1` + CN(C)c1ccc(Nc2c3ccc(NC(=O)CCN4CCCC4)cc3nc3cc(NC(=O)CCN4CCCC4)ccc23)cc1, the viability, T/C is 51.5%.

The assay is the same for the next values; noted with them: second compound 0.316 µM; first compound 0.0316 µM; hits give low values; spheroids with HUVEC and MSC.
With `CC(C)n1c(=O)n(C)c2cnc3cc(F)c(-c4ccc(OCCCN5CCCCC5)nc4)cc3c21` + CN(C)c1ccc(Nc2c3ccc(NC(=O)CCN4CCCC4)cc3nc3cc(NC(=O)CCN4CCCC4)ccc23)cc1, the viability, T/C is 103%.

`CC1COCCN1c1cc(-c2ccnn2C)c2ccnc(-c3ccn[nH]3)c2n1` (configuration not stated) + CN(C)c1ccc(Nc2c3ccc(NC(=O)CCN4CCCC4)cc3nc3cc(NC(=O)CCN4CCCC4)ccc23)cc1: the viability, T/C was 94.3%.

On to `CC1COCCN1c1cc(C2(O)CC3CCC(C2)O3)c2cnn(-c3ccn[nH]3)c2n1` (configuration not stated) + CN(C)c1ccc(Nc2c3ccc(NC(=O)CCN4CCCC4)cc3nc3cc(NC(=O)CCN4CCCC4)ccc23)cc1, for which the viability, T/C was 99.5%.

With `COc1ccc([C@@H](O)c2cc(-c3ncnc4cc(N5CCOCC5)ccc34)c(F)cc2Cl)nn1` + CN(C)c1ccc(Nc2c3ccc(NC(=O)CCN4CCCC4)cc3nc3cc(NC(=O)CCN4CCCC4)ccc23)cc1, the viability, T/C is 93.3%.

Still in this assay, the particulars now being: second compound 0.316 µM; first compound 0.1 µM; hits give low values; spheroids with HUVEC and MSC.
With `CC(C)n1c(=O)n(C)c2cnc3cc(F)c(-c4ccc(OCCCN5CCCCC5)nc4)cc3c21` + CN(C)c1ccc(Nc2c3ccc(NC(=O)CCN4CCCC4)cc3nc3cc(NC(=O)CCN4CCCC4)ccc23)cc1, the viability, T/C is 103%.

Turning to `CC1COCCN1c1cc(-c2ccnn2C)c2ccnc(-c3ccn[nH]3)c2n1` (configuration not stated) + CN(C)c1ccc(Nc2c3ccc(NC(=O)CCN4CCCC4)cc3nc3cc(NC(=O)CCN4CCCC4)ccc23)cc1, the viability, T/C is 74.1%.

As to `CC1COCCN1c1cc(C2(O)CC3CCC(C2)O3)c2cnn(-c3ccn[nH]3)c2n1` (configuration not stated) + CN(C)c1ccc(Nc2c3ccc(NC(=O)CCN4CCCC4)cc3nc3cc(NC(=O)CCN4CCCC4)ccc23)cc1, the viability, T/C is 61.5%.

With `COc1ccc([C@@H](O)c2cc(-c3ncnc4cc(N5CCOCC5)ccc34)c(F)cc2Cl)nn1` + CN(C)c1ccc(Nc2c3ccc(NC(=O)CCN4CCCC4)cc3nc3cc(NC(=O)CCN4CCCC4)ccc23)cc1, the viability, T/C was 91.5%.

Still in this assay, the particulars now being: second compound 0.316 µM; first compound 0.316 µM; hits give low values; spheroids with HUVEC and MSC.
Consider `CC(C)n1c(=O)n(C)c2cnc3cc(F)c(-c4ccc(OCCCN5CCCCC5)nc4)cc3c21` + CN(C)c1ccc(Nc2c3ccc(NC(=O)CCN4CCCC4)cc3nc3cc(NC(=O)CCN4CCCC4)ccc23)cc1, for which the viability, T/C is 99.5%.

With `CC1COCCN1c1cc(-c2ccnn2C)c2ccnc(-c3ccn[nH]3)c2n1` (configuration not stated) + CN(C)c1ccc(Nc2c3ccc(NC(=O)CCN4CCCC4)cc3nc3cc(NC(=O)CCN4CCCC4)ccc23)cc1, the viability, T/C was 31%.

For the compound `CC1COCCN1c1cc(C2(O)CC3CCC(C2)O3)c2cnn(-c3ccn[nH]3)c2n1` (configuration not stated) + CN(C)c1ccc(Nc2c3ccc(NC(=O)CCN4CCCC4)cc3nc3cc(NC(=O)CCN4CCCC4)ccc23)cc1, the viability, T/C was 30.6%.

Regarding `COc1ccc([C@@H](O)c2cc(-c3ncnc4cc(N5CCOCC5)ccc34)c(F)cc2Cl)nn1` + CN(C)c1ccc(Nc2c3ccc(NC(=O)CCN4CCCC4)cc3nc3cc(NC(=O)CCN4CCCC4)ccc23)cc1, the viability, T/C was 89.1%.
